Data reported in patent US4607039A, “Quinoline derivatives which are 5-hydroxytryptamine antagonists” (Imperial Chemical Industries PLC, priority 1982, dated 1986).

Key:
[1] = Tolerance in the conscious dog, oral; details: in vivo, read-out: oral doses tolerated (up to)
Protocol: (§1) No toxic effects or other undesirable effects have been observed with the compounds at doses at which they are active in the above-mentioned tests. Furthermore, as an indication of the lack of toxicity of a specific compound of the invention, namely 2-(2-dimethylamino-2-methylpropylthio)-4-methyl-3-phenylquinoline, that compound is tolerated in both the conscious dog and the marmoset at oral doses of up to 60 mg./kg.

[2] = Tolerance in the marmoset, oral; details: in vivo, read-out: oral doses tolerated (up to)
Protocol: as §1

[3] = stated in U.S. Pat. No. 1,860,286; cited from earlier work

Compound | MTD [1] | MTD [2] | antipyretic activity [3]
Cc1c(-c2ccccc2)c(SCC(C)(C)N(C)C)nc2ccccc12.O=C(O)/C=C/C(=O)O.O=C(O)/C=C/C(=O)O [Example 3, 2-(2-dimethylamino-2-methylpropylthio)-4-methyl-3-phenylquinoline difumarate] | ≥ 60 mg/kg | ≥ 60 mg/kg | 
CCN(CC)CCOc1nc2ccccc2cc1-c1ccccc1 [2-(2-diethylaminoethoxy)-3-phenylquinoline] |  |  | exhibits antipyretic activity
